Assay results reported in patent publication US6472389B1, “Pyrrolo[1,2-b] pyridazine derivatives having sPLA2 inhibitory effect” (Shionogi & Co., Ltd., priority 1998, dated 2002).

Tests used:
[1] = target: T1, recombinant human secretory phospholipase A2 (Homo sapiens, UniProt P14555); assay: Inhibition test of human secretory phospholipase A2 (chromogenic assay, 96 well microtiterplate); assay type: biochemical; conditions: sPLA2 50 ng/well, 40° C., 30 minutes, OD 405 nm, substrate 1,2-bis(heptanoylthio)-1,2-dideoxy-sn-glycero-3-phospholylcholine
T1 sequence (P14555 21-144): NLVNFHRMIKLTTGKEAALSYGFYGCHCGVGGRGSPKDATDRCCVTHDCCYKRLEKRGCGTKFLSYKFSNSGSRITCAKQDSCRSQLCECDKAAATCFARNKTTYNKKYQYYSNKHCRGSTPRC
Source text: Inhibition Test of Human Secretory Phospholipase A2
In order to identify and evaluate an inhibitor of recombinant human secretory phospholipase A2, the following chromogenic assay is utilized. The assay herein has been applied for high volume screening wherein 96 well microtiterplate is used. A general explanation for such assay is described in “Analysis of Human Synovial Fluid Phospholipase A2 on Short Chain Phosphatidylcholine-Mixed Micelles: Development of a Spectrophotometric Assay Suitable for a Micortiterplate Reader” (Analytical Biochemistry, 204, pp 190-197, 1992 by Laure. J. Reynolds. Lori L. Hughes and Edward A. Dennis: the disclosure of which is incorporated herein for reference.
Bovine Serum Albumin (fatty acid free) (1 g/L) (Sigma A-7030)
pH 7.5 (adjusted with NaOH)
pH 4.5 (adjusted with acetic acid)
1 mg of sPLA2 is dissolved in 1 ml of an enzyme buffer. Thereafter, the solution is maintained at 4° C.
In the assay, 5 μl of the solution is diluted with 1995 μl of the reaction buffer to be used.
198 mg of 5,5′-dithiobis-2-[…] (manufactured by Wako Pure Chemicals) is dissolved in 100 ml of H2O
100 mg of racemic 1,2-bis(heptanoylthio)-1,2-dideoxy-sn-glycero-3-phospholylcholine is dissolved in 1 ml of chloroform.
624.9 mg of Triton-X 100 is dissolved in the reaction buffer.
Enzyme Reaction: for 1 plate of Microtiterplate
1) 0.106 ml of the substrate solution is put in a centrifugal tube, and nitrogen gas is jetted to remove the solvent. 0.54 ml of Triton-X 100 is added thereto, the mixture is stirred, thereafter it is sonified in a bath type sonification to dissolve. To the resulting product are added 17.8 m1l of the reaction buffer and 0.46 ml of DTNB, and 0.18 ml each of the admixture is poured to wells of the 96 well microtiterplate.
2) 10 μl of a test compound (or solvent blank) are added in accordance with alignment of plates which has been previously set.
3) Incubation is effected at 40° C. for 15 minutes.
4) 20 μl of an enzyme solution (sPLA2) which has been previously diluted (50 ng/well) are added to start reaction (40° C., 30 minutes).
5) Changes in absorbancy for 30 minutes are measured by a plate reader, and inhibition activity was calculated (OD: 405 nm).
6) IC50 was determined by plotting log concentration with respect to inhibition values within 10% to 90% inhibiting range.

melting point | IC50 [1] | Structure (SMILES)
245 to 247 °C (dec.) | 79 nM | CCc1c(C(=O)C(N)=O)c2c(OCC(=O)OC)cc(-c3ccc4c(c3)OCO4)nn2c1Cc1ccccc1 [Compound I-39]
215 to 217 °C (dec.) | 58 nM | CCc1c(C(=O)C(N)=O)c2c(OCC(=O)OC)cc(-c3ccc(OC)cc3)nn2c1Cc1ccccc1 [Compound I-34]
218 to 219 °C (dec.) | 7 nM | CCc1c(C(=O)C(N)=O)c2c(OCC(=O)O)cc(C)nn2c1Cc1ccccc1-c1ccccc1 [Compound I-65]
271 to 276 °C (dec.) | 83 nM | Cc1cc(OCC(=O)O)c2c(C(=O)C(N)=O)c(C)c(Cc3ccc(-c4ccccc4)cc3)n2n1 [Compound I-83]
174 to 175 °C | 296 nM | CCc1c(C(=O)C(N)=O)c2c(OCC(=O)OC)cc(C(C)C)nn2c1Cc1ccccc1 [Compound I-10]
249 to 253 °C (dec.) | 72 nM | CCc1c(C(=O)C(N)=O)c2c(OCC(=O)OC)cc(-c3ccc(F)cc3)nn2c1Cc1ccccc1 [Compound I-33]
187 to 189 °C | 111 nM | CCc1c(C(=O)C(N)=O)c2c(OCC(=O)OC)cc(C)nn2c1Cc1ccccc1-c1ccccc1 [Compound I-35]
188 to 189 °C | 7810 nM | CCc1c(C(=O)C(N)=O)c2c(OCC(=O)OC)cc(CN3C(=O)CCC3=O)nn2c1Cc1ccccc1 [Compound I-49]
225 to 226 °C | 150 nM | CCc1c(C(=O)C(N)=O)c2c(OCC(=O)OC)cc(C)nn2c1Cc1ccccc1 [Compound I-4, Methyl (5-aminooxalyl-7-benzyl-6-ethyl-2-methylpyrrolo[1,2-b]pyridazine-4-yloxy)acetate]
272 to 275 °C (dec.) | 16 nM | CCc1c(C(=O)C(N)=O)c2c(OCC(=O)O)cc(C3CCCCC3)nn2c1Cc1ccccc1 [Compound I-67]
238 to 240 °C | 22 nM | CCc1c(C(=O)C(N)=O)c2c(OCC(=O)O)cc(C)nn2c1Cc1ccc(F)cc1 [Compound I-22]
199 to 201 °C | 25600 nM | COC(=O)COc1cc(Cc2ccccc2)nn2c(C)c(C)c(C(=O)C(N)=O)c12 [Compound I-51]
199 to 200 °C (dec.) | 13 nM | CCc1c(C(=O)C(N)=O)c2c(OCC(=O)O)cc(CN=[N+]=[N-])nn2c1Cc1ccccc1 [Compound I-80]
200 to 201 °C | 9 nM | CCc1cc(OCC(=O)O)c2c(C(=O)C(N)=O)c(C)c(Cc3ccccc3)n2n1 [Compound I-70]
210 to 212 °C (dec.) | 464 nM | CCc1c(C(=O)C(N)=O)c2c(OCC(=O)O)cc(CN3C(=O)CCC3=O)nn2c1Cc1ccccc1 [Compound I-79]
194 to 196 °C | 93 nM | COC(=O)COc1cc(C)nn2c(Cc3ccccc3-c3ccc(F)cc3)c(C)c(C(=O)C(N)=O)c12 [Compound I-52]
204 to 206 °C | 10 nM | CCc1c(C(=O)C(N)=O)c2c(OCC(=O)O)cc(COc3ccc(OC)c(OC)c3)nn2c1Cc1ccccc1 [Compound I-77]
183 to 184 °C | 4520 nM | CCc1c(C(=O)C(N)=O)c2c(OCC(=O)OCc3ccccc3)cc(CN3CCOCC3)nn2c1Cc1ccccc1 [Compound I-30]
204 to 205 °C | 8 nM | CCCc1cc(OCC(=O)O)c2c(C(=O)C(N)=O)c(C)c(Cc3ccccc3)n2n1 [Compound I-71]

melting point | IC50 [1] | Structure (SMILES)
200 to 202 °C | 883 nM | CCc1c(C(=O)C(N)=O)c2c(OCC(=O)OC)cc(C(F)(F)F)nn2c1Cc1ccc(F)cc1 [Compound I-14]
160 to 161 °C | 52 nM | Cc1cc(OCC(=O)OCCN2CCOCC2)c2c(C(=O)C(N)=O)c(C)c(Cc3ccccc3)n2n1 [Compound I-56]
188 to 190 °C | 6 nM | CCc1c(C(=O)C(N)=O)c2c(OCC(=O)O)cc(C)nn2c1Cc1cccc(Oc2ccccc2)c1 [Compound I-66]
231 to 233 °C (dec.) | 10 nM | CCCc1cc(OCC(=O)O)c2c(C(=O)C(N)=O)c(CC)c(Cc3ccccc3)n2n1 [Compound I-19]
218 to 219 °C | 6 nM | CCc1c(C(=O)C(N)=O)c2c(OCC(=O)O)cc(COc3ccc(OC)cc3)nn2c1Cc1ccccc1 [Compound I-76]
232 to 233 °C (dec.) | 8190 nM | Cc1c(C(=O)C(N)=O)c2c(OCC(=O)O)cc(Cc3ccccc3)nn2c1C [Compound I-81]
248 to 250 °C (dec.) | 7 nM | CCc1c(C(=O)C(N)=O)c2c(OCC(=O)O)cc(-c3ccc(OC)cc3)nn2c1Cc1ccccc1 [Compound I-64]
226 to 228 °C (dec.) | 9 nM | CCc1c(C(=O)C(N)=O)c2c(OCC(=O)O)cc(CSc3ccccc3)nn2c1Cc1ccccc1 [Compound I-58]
252 to 254 °C | 6 nM | CCc1c(C(=O)C(N)=O)c2c(OCC(=O)O)cc(-c3ccccc3)nn2c1Cc1ccccc1F [Compound I-25]
252 to 254 °C | 745 nM | CCc1c(C(=O)C(N)=O)c2c(OCC(=O)OC)cc(C)nn2c1Cc1ccc(F)cc1 [Compound I-12]
189 to 192 °C | 126 nM | CCc1c(C(=O)C(N)=O)c2c(OCC(=O)OC)cc(CSc3ccccc3)nn2c1Cc1ccccc1 [Compound I-27]
249 to 250 °C (dec.) | 2610 nM | CCc1c(C(=O)C(N)=O)c2c(OCC(=O)O)cc(CN3CCN(C)CC3)nn2c1Cc1ccccc1 [Compound I-61]
185 to 186 °C | 238 nM | CCc1c(C(=O)C(N)=O)c2c(OCC(=O)OC)cc(COc3ccccc3)nn2c1Cc1ccccc1 [Compound I-6, Methyl (5-aminooxalyl-7-benzyl-6-ethyl-2-phenoxymethylpyrrolo[1,2-b]pyridazine-4-yloxy)acetate]
204 to 206 °C | 165 nM | CCCc1cc(OCC(=O)OC)c2c(C(=O)C(N)=O)c(CC)c(Cc3ccccc3)n2n1 [Compound I-9]
234 to 236 °C | 3740 nM | COC(=O)COc1cc(C)nn2c(Cc3ccc(-c4ccccc4)cc3)c(C)c(C(=O)C(N)=O)c12 [Compound I-53]
251 to 252 °C | 30 nM | COC(=O)COc1cc(-c2ccccc2)nn2c(Cc3ccccc3)c(C)c(C(=O)C(N)=O)c12 [Compound I-45]
204 to 206 °C | 26 nM | COC(=O)COc1cc(Cc2ccccc2)nn2c(Cc3ccccc3)c(C)c(C(=O)C(N)=O)c12 [Compound I-42]
163 to 165 °C | 177 nM | COC(=O)COc1cc(C)nn2c(Cc3ccccc3)c(C)c(C(=O)C(N)=O)c12 [Compound I-26]
242 to 244 °C (dec.) | 93 nM | Cc1cc(OCC(=O)O)c2c(C(=O)C(N)=O)c(C)c(Cc3ccccc3-c3ccc(F)cc3)n2n1 [Compound I-82]
